Common to all, as to assay type: cell-based
For one test, the system named is P aeruginosa. Here is the method: (§1) The following microbroth dilution protocol was adapted to determine the minimum inhibitory concentration (MIC) of each peptide. First, Mueller-Hinton broth (MHB) was passed through an anion exchange column to remove polyanionic species and generate refined MHB. […] Briefly, bacterial cells were grown overnight in refined MHB at 37° C. and then diluted and allowed to grow again for several hours. Serial dilutions of peptide stocks in water (10 μl) were prepared using clear round-bottom polypropylene 96-well plates. Then 90 μl of bacteria in refined MHB was added to give a final inoculum of 5×10^5 CFU/ml. The plates were then covered with porous tape to reduce evaporation, and incubated for 20-24 hours at 37° C. The MIC is the minimum peptide concentration at which no visible growth was observed.

The subject of another test is B cereus. The procedure:
as §1

A further test concerns S aureus. The procedure: as §1
For the next test, the system named is E coli. The procedure:
as §1

In brackets after ≈: the same amount, converted by molar mass. Positions of bridges follow the written chain, without caps; N, C: chain ends. Non-standard residues stand in square brackets, D forms with d. Residues, ends and D or L forms follow the SMILES beside them. S5 = C=CCCC[C@](C)(N)C(=O)O; Nle = CCCC[C@H](N)C(=O)O

Regarding `CCCC[C@H](NC(=O)[C@]1(C)CCCC=CCCC[C@](C)(NC(=O)[C@H](C)NC(=O)[C@H](CCCCN)NC(=O)CNC(=O)[C@H](Cc2ccccc2)NC(=O)[C@H](CCCCN)NC(=O)[C@H](CCCCN)NC(=O)[C@H](CCCCN)NC(=O)[C@H](CO)NC(=O)[C@H](Cc2c[nH]cn2)NC(=O)[C@]2(C)CCCC=CCCC[C@](C)(NC(=O)CN)C(=O)NCC(=O)N[C@@H](CCCNC(=N)N)C(=O)N[C@@H](Cc3ccccc3)C(=O)N2)C(=O)N[C@@H](C(C)C)C(=O)NCC(=O)N[C@@H](CCC(=O)O)C(=O)N1)C(=O)N[C@@H](CC(N)=O)C(=O)N[C@@H](CO)C(N)=O` [Mag(i+4)1,15(A9K, K4R), GXGRFXHSKKKFGKAXVGEXBNS] (H-G[S5]GRF[S5]HSKKKFGKA[S5]VGE[S5][Nle]NS-NH2; staple 2-6, 16-20; N-terminus and C-terminus assumed), the “MIC P aeruginosa” value against P aeruginosa is 6.2 µg/mL (≈ 2.43 µM). In addition, the “MIC B cereus” value with B cereus was found to be 12.5 µg/mL (≈ 4.91 µM). Besides, the “MIC S aureus” value against S aureus was greater than 50 µg/mL. For the same compound, in the test on E coli, the “MIC E coli” value was 3.1 µg/mL (≈ 1.22 µM).
On the same counts, the results for `CCCC[C@H](NC(=O)[C@]1(C)CCCC=CCCC[C@](C)(NC(=O)[C@H](C)NC(=O)[C@H](CCCCN)NC(=O)CNC(=O)[C@H](Cc2ccccc2)NC(=O)[C@H](CCCCN)NC(=O)[C@H](CCCNC(=N)N)NC(=O)[C@H](CCCCN)NC(=O)[C@H](CO)NC(=O)[C@H](Cc2c[nH]cn2)NC(=O)[C@]2(C)CCCC=CCCC[C@](C)(NC(=O)CN)C(=O)NCC(=O)N[C@@H](CCCNC(=N)N)C(=O)N[C@@H](Cc3ccccc3)C(=O)N2)C(=O)N[C@@H](C(C)C)C(=O)NCC(=O)N[C@@H](CCC(=O)O)C(=O)N1)C(=O)N[C@@H](CC(N)=O)C(=O)N[C@@H](CO)C(N)=O` [Mag(i+4)1,15(A9K, K4R, K10R), GXGRFXHSKRKFGKAXVGEXBNS] (H-G[S5]GRF[S5]HSKRKFGKA[S5]VGE[S5][Nle]NS-NH2; staple 2-6, 16-20) are 6.2 µg/mL (≈ 2.41 µM), 12.5 µg/mL (≈ 4.85 µM), greater than 50 µg/mL and 3.1 µg/mL (≈ 1.2 µM).
The matching figures for `CCCC[C@H](NC(=O)[C@]1(C)CCCC=CCCC[C@](C)(NC(=O)[C@H](C)NC(=O)[C@H](CCCCN)NC(=O)CNC(=O)[C@H](Cc2ccccc2)NC(=O)[C@H](CCCCN)NC(=O)[C@H](CCCCN)NC(=O)[C@H](CCCCN)NC(=O)[C@H](CO)NC(=O)[C@H](Cc2c[nH]cn2)NC(=O)[C@]2(C)CCCC=CCCC[C@](C)(NC(=O)CN)C(=O)NCC(=O)N[C@@H](Cc3c[nH]cn3)C(=O)N[C@@H](Cc3ccccc3)C(=O)N2)C(=O)N[C@@H](C(C)C)C(=O)NCC(=O)N[C@@H](CCC(=O)O)C(=O)N1)C(=O)N[C@@H](CC(N)=O)C(=O)N[C@@H](CO)C(N)=O` [Mag(i+4)1,15(A9K, K4H), GXGHFXHSKKKFGKAXVGEXBNS] (H-G[S5]GHF[S5]HSKKKFGKA[S5]VGE[S5][Nle]NS-NH2; staple 2-6, 16-20; N-terminus and C-terminus assumed): 6.2 µg/mL (≈ 2.45 µM), 25 µg/mL (≈ 9.89 µM), greater than 50 µg/mL and 3.1 µg/mL (≈ 1.23 µM).
On the same counts, the results for `CCCC[C@H](NC(=O)[C@]1(C)CCCC=CCCC[C@](C)(NC(=O)[C@H](C)NC(=O)[C@H](CCCCN)NC(=O)CNC(=O)[C@H](Cc2ccccc2)NC(=O)[C@H](CCCCN)NC(=O)[C@H](Cc2c[nH]cn2)NC(=O)[C@H](CCCCN)NC(=O)[C@H](CO)NC(=O)[C@H](Cc2c[nH]cn2)NC(=O)[C@]2(C)CCCC=CCCC[C@](C)(NC(=O)CN)C(=O)NCC(=O)N[C@@H](Cc3c[nH]cn3)C(=O)N[C@@H](Cc3ccccc3)C(=O)N2)C(=O)N[C@@H](C(C)C)C(=O)NCC(=O)N[C@@H](CCC(=O)O)C(=O)N1)C(=O)N[C@@H](CC(N)=O)C(=O)N[C@@H](CO)C(N)=O` [Mag(i+4)1,15(A9K, K4H, K10H), GXGHFXHSKHKFGKAXVGEXBNS] (H-G[S5]GHF[S5]HSKHKFGKA[S5]VGE[S5][Nle]NS-NH2; staple 2-6, 16-20) are 50 µg/mL (≈ 19.7 µM), 50 µg/mL (≈ 19.7 µM), greater than 50 µg/mL and 3.1 µg/mL (≈ 1.22 µM).
For `CCCC[C@H](NC(=O)[C@]1(C)CCCC=CCCC[C@](C)(NC(=O)[C@H](C)NC(=O)[C@H](CCCCN)NC(=O)CNC(=O)[C@H](Cc2ccccc2)NC(=O)[C@H](Cc2c[nH]cn2)NC(=O)[C@H](Cc2c[nH]cn2)NC(=O)[C@H](CCCCN)NC(=O)[C@H](CO)NC(=O)[C@H](Cc2c[nH]cn2)NC(=O)[C@]2(C)CCCC=CCCC[C@](C)(NC(=O)CN)C(=O)NCC(=O)N[C@@H](Cc3c[nH]cn3)C(=O)N[C@@H](Cc3ccccc3)C(=O)N2)C(=O)N[C@@H](C(C)C)C(=O)NCC(=O)N[C@@H](CCC(=O)O)C(=O)N1)C(=O)N[C@@H](CC(N)=O)C(=O)N[C@@H](CO)C(N)=O` [Mag(i+4)1,15(A9K, K4H, K10H, K11H), GXGHFXHSKHHFGKAXVGEXBNS] (H-G[S5]GHF[S5]HSKHHFGKA[S5]VGE[S5][Nle]NS-NH2; staple 2-6, 16-20), in the test with P aeruginosa, the “MIC P aeruginosa” value was 50 µg/mL (≈ 19.6 µM). Moreover, the “MIC B cereus” value against B cereus was greater than 50 µg/mL. In the test on S aureus, the “MIC S aureus” value was greater than 50 µg/mL. In addition, the “MIC E coli” value against E coli came out at 17.7 µg/mL (≈ 6.95 µM).
